Like-named read-outs stand apart in the source and are kept apart here.
What was measured:
MDA-MB-231 = experiment: MTT cytotoxic/antiproliferative activity, 72 h; format: cell-based, human; conditions: MDA-MB-231, MTT, 72 h
NCI-H2228 = experiment: MTT cytotoxic/antiproliferative activity, 72 h; format: cell-based, human; conditions: NCI-H2228, MTT, 72 h
U87-MG = experiment: MTT cytotoxic/antiproliferative activity, 72 h; format: cell-based, human; conditions: MTT, 72 h
Description: (§1) A panel of six cancer cell lines was used to evaluate the cytotoxic potential of the investigated compounds.
(§2) Cytotoxicity in hepatocyte-like cells (HLC). STEMdiff Hepatocyte Kit was used to generate HLC from human pluripotent stem cells. Cytotoxicity of several of the tested compounds in HLC was evaluated using the sulphorhodamine B assay.

[1] = tested on: normal (noncancerous) cells MRC-5, IMR-90, hTERT-HPNE, MCF10A; experiment: MTT, noncancerous cell lines (average, selectivity index); format: cell-based, human; conditions: for SI, selectivity index: IC50(normal cells)/averageIC50(cancer cells); for IC50: average over MRC-5, IMR-90, hTERT-HPNE, MCF10A, read-out: av norm (average IC50 in noncancerous cells)
Description: Growth inhibition activity in cancer cell lines was compared with the activity to inhibit the proliferation of normal (noncancerous) cells, namely MRC-5, IMR-90, hTERT-HPNE, and MCF10A cells. Selectivity indexes (SI) were calculated as (IC50 in noncancerous cells)/(average IC50 in cancer cells). […] We further assessed the toxicity of several of the compounds in hepatocyte-like cells (HLC) generated from human pluripotent cells. […]

HCT116 = experiment: MTT cytotoxic/antiproliferative activity, 72 h; format: cell-based, human; conditions: HCT116, MTT, 72 h
[2] = tested on: panel of six cancer cell lines; experiment: MTT, panel of six cancer cell lines (average, ranges); format: cell-based, human; conditions: average over six cancer cell lines, read-out: av cancer (average IC50 in cancer cells)
Description: as §1, §2

[3] = Reduction by L-ascorbic acid in phosphate buffer (RP-HPLC); format: physicochemical; conditions: 10 equiv L-ascorbic acid, 10% DMSO in 100 mM phosphate buffer pH 7.4, 37 °C
Description: The reduction of Pt(IV) complexes was performed by reacting with 10 equiv of L-ascorbic acid in 10% DMSO in 100 mM phosphate buffer (pH 7.4) at 37 °C, and was monitored by reverse-phase analytical HPLC. The half-lives for the reduction were calculated from the decreasing peak areas as a function of time.
The reduction of the Pt(IV) complexes was performed in the presence of 10 equiv of L-ascorbic acid (AA) in phosphate buffer (100 mM, pH 7.4) at 37 °C using reverse-phase analytical HPLC. […] The platinum complexes were dissolved in 10% DMSO with 50% MeOH and added to 100 mM phosphate buffer (pH 7.4). […] The samples were injected and stored at 37 °C throughout the experiment.

A549 = experiment: MTT cytotoxic/antiproliferative activity, 72 h; format: cell-based, human; conditions: A549, MTT, 72 h
[4] = Stability in RPMI cell culture medium with serum (HPLC); conditions: for intact Pt(IV) prodrug still present: after 3 days in the media
Description: Two conditions must be met for Pt(IV) complexes to serve as true prodrugs: they must remain stable in biological fluids and should be activated by reduction within the cancer cells to release the bioactive components in their active form, thereby facilitating the rapid onset of cytotoxic effects. […] The reduction in the area of the HPLC peak of the compounds was monitored as a function of time, and their half-lives were calculated (Table and Figures S26,S27).
The stock solutions were prepared by dissolving the compounds in a 1:9 (v/v) mixture of DMSO and RPMI media. After preparation, the samples were injected and stored at 37 °C throughout the experiment. The final concentration of the complexes used for the experiment is 50–60 μM.

MRC-5 = experiment: MTT cytotoxicity in noncancerous cells, 72 h; format: cell-based, human
Description: (§3) Growth inhibition activity in cancer cell lines was compared with the activity to inhibit the proliferation of normal (noncancerous) cells, namely MRC-5, IMR-90, hTERT-HPNE, and MCF10A cells. Selectivity indexes (SI) were calculated as (IC50 in noncancerous cells)/(average IC50 in cancer cells). […] We further assessed the toxicity of several of the compounds in hepatocyte-like cells (HLC) generated from human pluripotent cells.
as §2

IMR-90 = experiment: MTT cytotoxicity in noncancerous cells, 72 h; format: cell-based, human; conditions: IMR-90, MTT
Description: as §3, §2

hTERT-HPNE = experiment: MTT cytotoxicity in noncancerous cells, 72 h; format: cell-based, human
Description: as §3, §2

MCF10A = experiment: MTT cytotoxicity in noncancerous cells, 72 h; format: cell-based, human
Description: as §3, §2

RD = experiment: MTT cytotoxic/antiproliferative activity, 72 h; format: cell-based, human; conditions: MTT, 72 h
MMC2 = experiment: MTT cytotoxicity in NER-deficient cells, 72 h; format: cell-based, Chinese hamster; conditions: for Index F: IC50(CHOK1)/IC50(MMC2); for IC50: MMC2 (NER deficient), MTT, 72 h
Source text: The cytotoxicity assay was also employed to determine whether DNA damage might be involved in the mechanism of action of the tested compounds. The Chinese hamster ovary MMC2 cell line harbors the ERCC3/XPB mutation, which renders it deficient in nucleotide excision repair (NER), whereas the parent line CHOK1 is proficient in this repair process. Thus, the MMC2 line is often more sensitive to agents causing DNA damage, especially NER-reparable DNA damage, than CHOK1. […] Phosphorylation of H2AX is a commonly used marker of DNA damage. […]

CHOK1 = experiment: MTT cytotoxicity in NER-proficient cells, 72 h; format: cell-based, Chinese hamster
Source text: The cytotoxicity assay was also employed to determine whether DNA damage might be involved in the mechanism of action of the tested compounds. The Chinese hamster ovary MMC2 cell line harbors the ERCC3/XPB mutation, which renders it deficient in nucleotide excision repair (NER), whereas the parent line CHOK1 is proficient in this repair process. Thus, the MMC2 line is often more sensitive to agents causing DNA damage, especially NER-reparable DNA damage, than CHOK1. […] Phosphorylation of H2AX is a commonly used marker of DNA damage.
as §2

A549 spheroids = experiment: Cytotoxicity in 3D spheroids, CellTiter-Glo 3D; format: cell-based, human; conditions: Homo sapiens, A549 3D spheroids, 96 h
Description: (§4) In the 3D structure, the gradients of gases, nutrients, and therapeutics play a role in the final cytotoxicity of a compound.
(§5) A549 and NCI-H2228 cells were seeded in ultralow attachment, U-shape plates (Corning) at a density of 800 cells/well in the tumorsphere medium consisting of DMEM/F12 medium (Sigma), fibroblast growth factor (20 ng/mL; Sigma), epidermal growth factor 2 (10 ng mL^–1; Sigma), B27 supplement (1×; Gibco), bovine serum albumin, bovine serum albumin (BSA) (1.5 mg mL^–1; Sigma). […] CellTiter-Glo 3D viability assay was used for the experiment evaluation following the manufacturer’s instructions. The bioluminescence signal, proportional to the number of living cells, was measured using the luminescence reader SPARK, and IC50 values were calculated.

NCI-H2228 spheroids = experiment: Cytotoxicity in 3D spheroids, CellTiter-Glo 3D; format: cell-based, human; conditions: Homo sapiens, NCI-H2228 3D spheroids, 96 h
Description: as §4, §5

CT26 cell line = experiment: MTT cytotoxic/antiproliferative activity, 72 h; format: cell-based, murine; conditions: Mus musculus
[5] = Cytotoxicity in hepatocyte-like cells, sulphorhodamine B assay; format: cell-based; conditions: hepatocyte-like cells from human pluripotent cells
Description: as §3, §2

[6] = 10% DMSO in RPMI cell culture medium containing serum, 37 °C, HPLC

SMILES	IC50 (MDA-MB-231) [nM]	IC50 (NCI-H2228) [nM]	IC50 (U87-MG) [nM]	SI, selectivity index [1]	IC50 [1] [nM]	IC50 (HCT116) [nM]	IC50 [2] [nM]	reduction half-life (t 1/2) [3] [h]	IC50 (A549) [nM]	intact Pt(IV) prodrug still present ([4]; 37 °C)	stability half-life (t 1/2) ([4]; serum) [h]	IC50 (MRC-5; MRC-5, MTT) [nM]	IC50 (IMR-90) [nM]	IC50 (hTERT-HPNE) [nM]	IC50 (MCF10A) [nM]	IC50 (RD) [nM]	Index F (MMC2)	IC50 (MMC2) [nM]	IC50 (CHOK1) [nM]	stability half-life (t 1/2) [4, 6] [h]	other results
C[C@@H](Oc1cc(-c2cnn(C3CCN(C(=O)[O][Pt]4([O]C(=O)CCCc5ccccc5)[O]C(=O)C(=O)[O]4)CC3)c2)cnc1N)c1c(Cl)ccc(F)c1Cl.N[C@@H]1CCCC[C@H]1N [compound 4, ctc-[Pt(DACH)(crizotinib)(PhB)(Ox)]]	1500 ± 500	1300 ± 400	1800 ± 400	1.9	2900	1000 ± 200	1500	11.5	1500 ± 400	more than 80%	>75	3100 ± 900	2900 ± 400	3200 ± 600	2400 ± 500	1600 ± 200	1.08	1300 ± 400	1400 ± 400		
Cc1cc(Nc2ncc(Cl)c(Nc3ccccc3S(=O)(=O)C(C)C)n2)c(OC(C)C)cc1C1CCN(C(=O)[O][Pt]([OH])([Cl])[Cl])CC1.N.N [compound 6, ctc-[Pt(NH3)2(ceritinib)(OH)Cl2]]	1100 ± 300	210 ± 60	800 ± 200	4.8	3000	700 ± 300	630	2.2	350 ± 60			2600 ± 900	4100 ± 900	2700 ± 500	2600 ± 200	600 ± 200	3.79(*)	290 ± 90	1100 ± 200	48	
O=C1[O][Pt]2([NH][C@@H]3CCCC[C@H]3[NH]2)[O]C1=O [OxPt, oxaliplatin, reference compound]	6200 ± 900	3800 ± 400				1300 ± 100			1600 ± 600							4300 ± 500					
CC(Oc1cc(-c2cnn(C3CCN(C(=O)[O][Pt]([OH])([Cl])[Cl])CC3)c2)cnc1N)c1c(Cl)ccc(F)c1Cl.N.N (stereo not drawn) [compound 2, ctc-[Pt(NH3)2(crizotinib)(OH)Cl2]]	1900 ± 600	740 ± 80	2000 ± 700	3.4	5500	2100 ± 500	1600	2.7	800 ± 100		75	4200 ± 900	7400 ± 700	5200 ± 600	5100 ± 600	2000 ± 400	1.95	770 ± 90	1500 ± 600		
Cc1cc(Nc2ncc(Cl)c(Nc3ccccc3S(=O)(=O)C(C)C)n2)c(OC(C)C)cc1C1CCN(C(=O)[O][Pt]2([O]C(=O)CCCc3ccccc3)[O]C(=O)C(=O)[O]2)CC1.N[C@@H]1CCCC[C@H]1N [compound 8, ctc-[Pt(DACH)(ceritinib)(PhB)(Ox)]]	1500 ± 400	800 ± 300		2.5	3300	880 ± 60	1300	12.5	1300 ± 200	> 65%		2300 ± 600	5000 ± 600	3100 ± 600	2900 ± 400	2200 ± 400	1.22	900 ± 200	1100 ± 200	>75	
C[C@@H](Oc1cc(-c2cnn(C3CCNCC3)c2)cnc1N)c1c(Cl)ccc(F)c1Cl [compound 1, crizotinib]																					IC50 (MDA-MB-231; Homo sapiens): 1200 ± 300 nM; IC50 (NCI-H2228; Homo sapiens): 820 ± 70 nM; IC50 (U87-MG; Homo sapiens, U-87 MG): 3900 ± 500 nM; IC50 ([1]; Homo sapiens): 6300 nM; IC50 (HCT116; Homo sapiens, HCT-116): 1900 ± 500 nM; IC50 (A549 spheroids): 3000 ± 1000 nM; IC50 (NCI-H2228 spheroids): 1500 ± 300 nM; IC50 (CT26 cell line): 1800 ± 400 nM; IC50 ([2]; Homo sapiens): 1700 nM; IC50 [5]: 9000 ± 3000 nM; IC50 (A549; Homo sapiens): 1000 ± 200 nM; IC50 (MRC-5; Homo sapiens, MRC5, MRC-5, MTT): 4300 ± 300 nM; IC50 (IMR-90; Homo sapiens): 7600 ± 900 nM; IC50 (hTERT-HPNE; Homo sapiens): 6900 ± 800 nM; IC50 (MCF10A; Homo sapiens, MCF-10A): 6400 ± 700 nM; IC50 (RD; Homo sapiens): 1400 ± 400 nM; IC50 (MMC2; Cricetulus griseus): 1400 ± 300 nM; IC50 (CHOK1; Cricetulus griseus, CHO-K1): 1300 ± 500 nM
